{"source": "PubChem BioAssay AID1963434", "about": "(Molecular Pharmacology Branch, DTP, NCI, 2024);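 note: spheroids exposed to compounds for seven days before readout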", "test_system": "755483-174-R-J1-PDC complex spheroid growth, percent test/control", "assay": "Anticancer human tumor 755483-174-R-J1-PDC patient-derived rhabdomyosarcoma cell line growth inhibition [Asc]", "details": "for IC50: curve of first compound; for viability, T/C: stronger effect = lower value", "outline": "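Tumor cells were grown as complex spheroids with human endothelial cells (HUVEC) and human mesenchymal stem cells as stroma. Agents were tested alone and in combination, in half-log steps down from the clinical Cmax, or from 10 microM where Cmax was unknown.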"}
{"smiles": "CCN1CCN(Cc2ccc(Nc3ncc(F)c(-c4cc(F)c5nc(C)n(C(C)C)c5c4)n3)nc2)CC1", "note": "+ Cc1c(S(C)(=O)=O)c(-c2cc(F)cc(N3CCN(c4ccc(NS(=O)(=O)c5ccc(NC(CCN6CCC(C(=O)OCCCP(=O)(O)O)CC6)CSc6ccccc6)c(S(=O)(=O)C(F)(F)F)c5)cc4)CC3)c2)c(-c2ccc(Cl)cc2)n1C(C)C", "values": [{"measurement": "IC50", "setting": "second compound 0.1 µM", "value": "> 1000", "unit": "nM"}, {"measurement": "IC50", "setting": "second compound 0.316 µM", "value": "< 3.16", "unit": "nM"}, {"measurement": "IC50", "setting": "second compound 1 µM", "value": "< 3.16", "unit": "nM"}, {"measurement": "IC50", "setting": "second compound 3.16 µM", "value": "< 3.16", "unit": "nM"}, {"measurement": "IC50", "setting": "second compound 10 µM", "value": "< 3.16", "unit": "nM"}, {"measurement": "viability, T/C", "setting": "second compound 0.1 µM, first compound 0.00316 µM", "value": 43, "unit": "%"}, {"measurement": "viability, T/C", "setting": "second compound 0.1 µM, first compound 0.01 µM", "value": 62.1, "unit": "%"}, {"measurement": "viability, T/C", "setting": "second compound 0.1 µM, first compound 0.0316 µM", "value": 59.5, "unit": "%"}, {"measurement": "viability, T/C", "setting": "second compound 0.1 µM, first compound 0.1 µM", "value": 68.5, "unit": "%"}, {"measurement": "viability, T/C", "setting": "second compound 0.1 µM, first compound 0.316 µM", "value": 103, "unit": "%"}, {"measurement": "viability, T/C", "setting": "second compound 0.1 µM, first compound 1 µM", "value": 104, "unit": "%"}, {"measurement": "viability, T/C", "setting": "second compound 0.316 µM, first compound 0.00316 µM", "value": 41, "unit": "%"}, {"measurement": "viability, T/C", "setting": "second compound 0.316 µM, first compound 0.01 µM", "value": 48, "unit": "%"}, {"measurement": "viability, T/C", "setting": "second compound 0.316 µM, first compound 0.0316 µM", "value": 57.9, "unit": "%"}, {"measurement": "viability, T/C", "setting": "second compound 0.316 µM, first compound 0.1 µM", "value": 59.3, "unit": "%"}, {"measurement": "viability, T/C", "setting": "second compound 0.316 µM, first compound 0.316 µM", "value": 69, "unit": "%"}, {"measurement": "viability, T/C", "setting": "second compound 0.316 µM, first compound 1 µM", "value": 81.7, "unit": "%"}, {"measurement": "viability, T/C", "setting": "second compound 1 µM, first compound 0.00316 µM", "value": 33.3, "unit": "%"}, {"measurement": "viability, T/C", "setting": "second compound 1 µM, first compound 0.01 µM", "value": 45.3, "unit": "%"}, {"measurement": "viability, T/C", "setting": "second compound 1 µM, first compound 0.0316 µM", "value": 37.3, "unit": "%"}, {"measurement": "viability, T/C", "setting": "second compound 1 µM, first compound 0.1 µM", "value": 50.2, "unit": "%"}, {"measurement": "viability, T/C", "setting": "second compound 1 µM, first compound 0.316 µM", "value": 49.5, "unit": "%"}, {"measurement": "viability, T/C", "setting": "second compound 1 µM, first compound 1 µM", "value": 49.7, "unit": "%"}, {"measurement": "viability, T/C", "setting": "second compound 3.16 µM, first compound 0.00316 µM", "value": 31.3, "unit": "%"}, {"measurement": "viability, T/C", "setting": "second compound 3.16 µM, first compound 0.01 µM", "value": 66, "unit": "%"}, {"measurement": "viability, T/C", "setting": "second compound 3.16 µM, first compound 0.0316 µM", "value": 36.6, "unit": "%"}, {"measurement": "viability, T/C", "setting": "second compound 3.16 µM, first compound 0.1 µM", "value": 45.4, "unit": "%"}, {"measurement": "viability, T/C", "setting": "second compound 3.16 µM, first compound 0.316 µM", "value": 40.9, "unit": "%"}, {"measurement": "viability, T/C", "setting": "second compound 3.16 µM, first compound 1 µM", "value": 58.5, "unit": "%"}, {"measurement": "viability, T/C", "setting": "second compound 10 µM, first compound 0.00316 µM", "value": 52.8, "unit": "%"}, {"measurement": "viability, T/C", "setting": "second compound 10 µM, first compound 0.01 µM", "value": 41.9, "unit": "%"}, {"measurement": "viability, T/C", "setting": "second compound 10 µM, first compound 0.0316 µM", "value": 55, "unit": "%"}, {"measurement": "viability, T/C", "setting": "second compound 10 µM, first compound 0.1 µM", "value": 54.4, "unit": "%"}, {"measurement": "viability, T/C", "setting": "second compound 10 µM, first compound 0.316 µM", "value": 66.9, "unit": "%"}, {"measurement": "viability, T/C", "setting": "second compound 10 µM, first compound 1 µM", "value": 70.9, "unit": "%"}]}
